{"source": "paper PMC7815647", "about": "(Biochemistry and Biophysics Reports, 2021)", "tested_on": "Nit11764", "details": "40 mM Na-K phosphate pH 7.0", "data": [{"smiles": "N#C/C=C/c1ccccc1", "note": "[Cinnamonitrile]", "values": [{"measurement": "Km", "value": "1.27 ± 0.4", "unit": "mM"}]}, {"smiles": "N#C/C=C/C#N", "note": "[Fumaronitrile]", "values": [{"measurement": "Km", "value": "8.57 ± 0.8", "unit": "mM"}]}]}
